How the values were obtained:
Phyllotreta striolata = test: Canola foliar treatment, striped flea beetle mortality; format: in vivo
Description: 1. Canola-Striped Flea Beetle, Phyllotreta striolata:
Canola foliar treatment: Before application, construction paper was placed at the base of each plant to catch spray solution and therefore preventing beetle contact with contaminated soil and pots (allowing only the plants to be treated). Canola seedlings were treated at the first true leaf stage in a spray chamber at 300 L/ha with a three nozzle (TX-6) flat boom. Plants were allowed to dry, paper was removed, and plants were transferred to a greenhouse to hold over night. At infest, three plants (replicates) per treatment were placed into a bucket. Twenty adult flea beetles (mix sex) were aspirated into a vial and placed in the center of the bucket. The container was closed and placed into a Percival at 25 C 50% RH. Mortality evaluation was made on 6 DAI.

Meligethes aeneus = test: Oilseed rape inflorescence dip (foliar application), pollen beetle control; format: in vivo
Description: 2. Oilseed Rape—Pollen Beetle, Meligethes aeneus:
Foliar application: Test units consisted of a plastic cup with a hole in the bottom and a glass vial below that hole, containing irrigation water. Oil seed rape inflorescences were dipped into the treatment solutions and after drying placed inside the plastic cups. Each cup was sealed with a perforated, transparent lid. Ten adult pollen beetles, field collected, were added to each cup. Each treatment was replicated three times. Pollen beetle survival was assessed 3 days after application.

C[n+]1c([O-])c(-c2ccccc2)c(=O)n2c1SC[C@@H]2c1cnc(Cl)s1 [Compound I-R-1]
mortality at 600 ppm (Phyllotreta striolata; Phyllotreta striolata, in Brassica napus, 600 ppm, foliar spray 300 L/ha on canola seedlings at first true leaf, adult flea beetles, evaluation 6 DAI): ≥ 65% | flea beetle control (summary in words) (Phyllotreta striolata; canola foliar treatment, Table 1): good flea beetle control | Percent control (%) A03 (Meligethes aeneus; 72 g ai/ha, oil seed rape inflorescences dipped, field collected adult pollen beetles, assessed 3 days after application): 47.8 a % | efficacy against the adults of pollen beetle (summary in words) (Meligethes aeneus; foliar application): good efficacy

From patent US20220039386A1, “METHOD FOR CONTROLLING PESTS OF RAPESEED PLANTS” (BASF SE, priority 2018, published 2022)
